Assay [1] concerns the target T1, KIT (Homo sapiens, UniProt P10721).
T1 construct: made in house
Briefly: Competition binding assay, KIT Kd. The following applies: competition binding. Summed up:
(§1)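 Phage-fused or HEK-293/DNA-tagged kinase + ligand-coated streptavidin beads + compound, 1 h RT with shaking. Wash, elute with free ligand 30 min RT, qPCR of eluted kinase. Kd: 11-point 3-fold series.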

Assay [2] has as its target T2, PDGFRβ (Homo sapiens, UniProt P09619).
T2 construct: made in house
Briefly: Competition binding assay, PDGFRβ Kd. The note with it: competition binding. Summed up: as §1

Assay [3] deals with kinase panel containing either 386 or 392 distinct kinases. Briefly: Kinase selectivity score S10 from competition binding panel. The following applies: 10 μM, panel of 386 or 392 distinct kinases. In a few lines: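 S10 is the number of kinases with percent-of-control under 10, divided by all distinct wild-type kinases tested, from a single 10 μM concentration. Binding measured by qPCR of kinase recovered from ligand-coated beads after 1 h equilibrium at room temperature; kinases were phage fusions or DNA-tagged HEK-293 products.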

The target in assay [4] is T3, CSF1R (Homo sapiens, UniProt P07333). Briefly: Competition binding assay, CSF1R Kd. The arrangement: made in house. The note with it: competition binding. Summed up:
as §1

For assay [5], the target named is T3, CSF1R. Briefly: HEK293 CSF1R phosphorylation MSD assay. The note with it: HEK293 cells, M-CSF stimulated CSF1R phosphorylation, MSD; read-out: HEK293 pCSF1R M-CSF MSD:IC50. The arrangement: expressed in transfected cells; host or cells: HEK293. It is filed as cell-based. Summed up:
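Ligand-induced CSF1R autophosphorylation was measured by MSD sandwich assay: CSF1R-FKBP from lysates captured via FK506, anti-phosphotyrosine readout. Cells were exposed to compound for 2 h (9-point, half-log, 0.5% DMSO) before 5 min 50 ng/mL M-CSF. Reported IC50 is the mean of duplicate-plate IC50s relative to DMSO control.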

Some results are limits rather than exact numbers.

T1 sequence (P10721 26-976): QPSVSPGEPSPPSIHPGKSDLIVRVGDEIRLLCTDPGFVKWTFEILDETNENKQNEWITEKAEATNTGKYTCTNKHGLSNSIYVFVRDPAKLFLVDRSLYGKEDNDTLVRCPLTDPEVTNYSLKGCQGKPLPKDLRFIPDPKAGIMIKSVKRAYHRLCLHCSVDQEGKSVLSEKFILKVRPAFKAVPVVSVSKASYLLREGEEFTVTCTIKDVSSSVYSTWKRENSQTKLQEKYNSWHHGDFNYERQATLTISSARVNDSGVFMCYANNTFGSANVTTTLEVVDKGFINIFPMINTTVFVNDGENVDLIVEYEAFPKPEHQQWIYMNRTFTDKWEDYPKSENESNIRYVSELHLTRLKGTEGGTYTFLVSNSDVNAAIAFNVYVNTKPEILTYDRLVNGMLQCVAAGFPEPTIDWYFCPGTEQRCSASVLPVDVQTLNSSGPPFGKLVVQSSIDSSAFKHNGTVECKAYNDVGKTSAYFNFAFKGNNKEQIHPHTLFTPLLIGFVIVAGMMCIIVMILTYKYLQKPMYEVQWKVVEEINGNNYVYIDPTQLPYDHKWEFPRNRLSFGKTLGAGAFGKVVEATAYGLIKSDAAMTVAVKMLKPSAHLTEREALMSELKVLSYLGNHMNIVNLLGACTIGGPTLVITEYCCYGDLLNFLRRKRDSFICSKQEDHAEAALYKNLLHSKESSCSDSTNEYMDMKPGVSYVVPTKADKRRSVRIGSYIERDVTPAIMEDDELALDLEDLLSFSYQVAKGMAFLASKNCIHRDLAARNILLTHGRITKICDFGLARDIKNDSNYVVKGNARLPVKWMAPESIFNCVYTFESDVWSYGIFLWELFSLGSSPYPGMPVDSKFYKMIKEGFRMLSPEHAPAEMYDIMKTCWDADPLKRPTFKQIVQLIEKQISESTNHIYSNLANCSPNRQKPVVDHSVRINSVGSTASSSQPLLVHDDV
T3 sequence (P07333 20-972): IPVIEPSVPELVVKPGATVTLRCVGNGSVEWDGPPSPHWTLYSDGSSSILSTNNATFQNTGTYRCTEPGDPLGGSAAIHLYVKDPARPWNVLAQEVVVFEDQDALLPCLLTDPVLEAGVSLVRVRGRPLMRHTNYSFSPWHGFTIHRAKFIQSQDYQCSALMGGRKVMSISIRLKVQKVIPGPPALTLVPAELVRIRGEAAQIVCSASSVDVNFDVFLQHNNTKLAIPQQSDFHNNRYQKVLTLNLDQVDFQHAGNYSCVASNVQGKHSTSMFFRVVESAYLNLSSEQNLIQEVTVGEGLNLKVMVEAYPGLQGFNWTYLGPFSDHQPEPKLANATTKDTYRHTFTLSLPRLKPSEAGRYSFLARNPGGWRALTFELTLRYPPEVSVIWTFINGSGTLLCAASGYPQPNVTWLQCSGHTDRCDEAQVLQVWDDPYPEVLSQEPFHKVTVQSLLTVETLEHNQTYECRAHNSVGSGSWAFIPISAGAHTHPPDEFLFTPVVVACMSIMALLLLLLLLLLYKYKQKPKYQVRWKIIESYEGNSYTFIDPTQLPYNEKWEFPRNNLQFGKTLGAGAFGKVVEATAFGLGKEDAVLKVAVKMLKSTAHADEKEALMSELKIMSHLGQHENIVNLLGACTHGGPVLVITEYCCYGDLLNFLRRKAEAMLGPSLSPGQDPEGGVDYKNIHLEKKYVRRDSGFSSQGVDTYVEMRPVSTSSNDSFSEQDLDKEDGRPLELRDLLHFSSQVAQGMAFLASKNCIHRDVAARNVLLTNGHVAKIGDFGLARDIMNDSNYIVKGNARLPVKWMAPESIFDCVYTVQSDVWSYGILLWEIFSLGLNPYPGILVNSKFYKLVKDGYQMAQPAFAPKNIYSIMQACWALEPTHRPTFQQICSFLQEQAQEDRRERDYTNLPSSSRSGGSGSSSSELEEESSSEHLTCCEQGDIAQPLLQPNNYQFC
T2 sequence (P09619 33-1106): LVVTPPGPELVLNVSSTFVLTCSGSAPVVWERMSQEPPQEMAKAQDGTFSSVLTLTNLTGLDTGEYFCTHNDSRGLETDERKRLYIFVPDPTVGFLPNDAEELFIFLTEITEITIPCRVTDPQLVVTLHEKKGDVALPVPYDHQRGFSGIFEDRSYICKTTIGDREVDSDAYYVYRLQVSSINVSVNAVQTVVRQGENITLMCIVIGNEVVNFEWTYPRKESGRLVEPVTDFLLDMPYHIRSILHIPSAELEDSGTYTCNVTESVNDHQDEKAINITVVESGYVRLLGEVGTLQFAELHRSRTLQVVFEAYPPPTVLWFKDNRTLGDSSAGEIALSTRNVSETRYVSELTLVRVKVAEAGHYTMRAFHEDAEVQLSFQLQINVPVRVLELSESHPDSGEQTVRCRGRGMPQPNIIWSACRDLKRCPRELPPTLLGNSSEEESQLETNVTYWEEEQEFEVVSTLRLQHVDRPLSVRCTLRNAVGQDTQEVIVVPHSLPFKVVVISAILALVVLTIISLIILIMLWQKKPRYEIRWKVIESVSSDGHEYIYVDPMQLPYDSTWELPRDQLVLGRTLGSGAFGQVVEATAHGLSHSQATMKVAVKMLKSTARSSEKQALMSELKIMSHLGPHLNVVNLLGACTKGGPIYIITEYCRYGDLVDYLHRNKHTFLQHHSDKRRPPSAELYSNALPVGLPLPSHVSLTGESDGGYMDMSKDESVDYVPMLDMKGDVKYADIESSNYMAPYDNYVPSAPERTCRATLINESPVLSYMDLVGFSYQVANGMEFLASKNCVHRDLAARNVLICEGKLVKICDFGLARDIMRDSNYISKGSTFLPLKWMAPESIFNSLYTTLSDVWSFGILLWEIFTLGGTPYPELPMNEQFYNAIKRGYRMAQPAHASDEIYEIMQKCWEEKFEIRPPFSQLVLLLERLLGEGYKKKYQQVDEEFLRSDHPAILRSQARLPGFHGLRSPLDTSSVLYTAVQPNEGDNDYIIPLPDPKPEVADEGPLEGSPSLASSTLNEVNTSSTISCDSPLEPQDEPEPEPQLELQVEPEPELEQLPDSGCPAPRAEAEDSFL

Take `CC(C)(O)C#Cc1cnc2c(c1)ncn2Cc1ccc2nc(N[C@@H]3CCCC[C@H]3O)sc2c1` [Example 104, (1R,2R)-2-((6-((6-(3-hydroxy-3-methylbut-1-yn-1-yl)-3H-imidazo[4,5-b]pyridin-3-yl)methyl)benzo[d]thiazol-2-yl)amino)cyclohexanol]: the Kd (usually the free concentration of one partner at which half of the binding sites on the other are occupied at equilibrium, for simple one-to-one binding) is ≤ 100 nM in assay [1], ≤ 50 nM in assay [2] and ≤ 5 nM in assay [4]. The “Kinase specificity S(10)” value in assay [3] was “A (A≤0.01)”. Also, the IC50 (as a rule, the concentration at which inhibition is half-maximal) in assay [5] was ≤ 50 nM.
Turning to `O[C@@H]1CCCC[C@H]1Nc1nc2ccc(Cn3cnc4cnc(C(F)(F)F)nc43)cc2s1` [Example 105, (1R,2R)-2-((6-((2-(trifluoromethyl)-9H-purin-9-yl)methyl)benzo[d]thiazol-2-yl)amino)cyclohexanol], the results for the dissociation constant Kd in assay [1], in assay [2] and in assay [4] were 500 to 2000 nM, 500 to 2000 nM and 5 to 20 nM, respectively. For the same molecule, the “Kinase specificity S(10)” value in assay [3] is given as “A (A≤0.01)”. In assay [5], the IC50 was 200 to 500 nM.
With `O[C@@H]1CCCC[C@H]1Nc1nc2ccc(Cc3cnc4ccc(Br)nn34)cc2s1` [Example 177, (1R,2R)-2-((6-((6-bromoimidazo[1,2-b]pyridazin-3-yl)methyl)benzo[d]thiazol-2-yl)amino)cyclohexanol], the equilibrium dissociation constant (Kd) in assay [1] was ≤ 100 nM; in assay [2], ≤ 50 nM; in assay [4], ≤ 5 nM. For the same molecule, the “Kinase specificity S(10)” value in assay [3] is given as “C (C>0.02)”. Besides, the IC50 in assay [5] was ≤ 50 nM.
`CN1CCN(c2ccc3ncc(Cc4ccc5nc(N[C@@H]6CCCC[C@H]6O)sc5c4)n3n2)CC1` [Example 178, (1R,2R)-2-((6-((6-(4-methylpiperazin-1-yl)imidazo[1,2-b]pyridazin-3-yl)methyl)benzo[d]thiazol-2-yl)amino)cyclohexanol]: the Kd in assay [1] lay within 500 to 2000 nM; in assay [2] it was 500 to 2000 nM; in assay [4], 5 to 20 nM. In addition, the “Kinase specificity S(10)” value in assay [3] is recorded as “B (0.01<B≤0.02)”. Also, the IC50 in assay [5] fell in the range of 200 to 500 nM.
`OC[C@H]1CC[C@H](Nc2nc3ccc(Cn4cnc5cc(F)cnc54)cc3s2)CC1` [Example 179, (trans-4-((6-((6-fluoro-3H-imidazo[4,5-b]pyridin-3-yl)methyl)benzo[d]thiazol-2-yl)amino)cyclohexyl)methanol]: the Kd is ≤ 100 nM in assay [1], ≤ 50 nM in assay [2] and 5 to 20 nM in assay [4]. For the same molecule, the “Kinase specificity S(10)” value in assay [3] was “B (0.01<B≤0.02)”. The concentration for half-maximal inhibition (IC50) in assay [5] was 200 to 500 nM.
`OC[C@H]1CC[C@@H](Nc2nc3ccc(Cn4cnc5cc(F)cnc54)cc3s2)CC1` [Example 180, (cis-4-((6-((6-fluoro-3H-imidazo[4,5-b]pyridin-3-yl)methyl)benzo[d]thiazol-2-yl)amino)cyclohexyl)methanol]: the Kd in assay [1] lay within 100 to 500 nM; in assay [2], 50 to 500 nM; in assay [4], 20 to 50 nM. Moreover, the “Kinase specificity S(10)” value in assay [3] was “A (A≤0.01)”. In addition, the concentration for half-maximal inhibition (IC50) in assay [5] was > 500 nM.
As for `CS[C@@H]1CCCC[C@H]1Nc1nc2ccc(Cn3cnc4cc(F)cnc43)cc2s1` [Example 181, 6-((6-fluoro-3H-imidazo[4,5-b]pyridin-3-yl)methyl)-N-((1R,2R)-2-(methylthio)cyclohexyl)benzo[d]thiazol-2-amine], the Kd in assay [1] is 100 to 500 nM; in assay [2], ≤ 50 nM; in assay [4] it was 5 to 20 nM. Besides, the “Kinase specificity S(10)” value in assay [3] is reported as “B (0.01<B≤0.02)”. Moreover, the IC50 in assay [5] lay in the range of 200 to 500 nM.
On the same counts, the results for `O[C@@H]1CCCC[C@H]1Nc1nc2ccc(Cn3cnc4cc(OC5COC5)ccc43)cc2s1` [Example 182, (1R,2R)-2-((6-((5-(oxetan-3-yloxy)-1H-benzo[d]imidazol-1-yl)methyl)benzo[d]thiazol-2-yl)amino)cyclohexanol] are 100 to 500 nM, 50 to 500 nM, ≤ 5 nM, “A (A≤0.01)” and ≤ 50 nM.

These data come from US9938261B2, “Heterocyclic compounds and methods of use thereof” (AMBIT BIOSCIENCES CORPORATION, priority 2011, dated 2018).
